Experimental data reported in patent US20160228434A1, “TREATMENT OF DISEASES CAUSED BY ABNORMAL LYMPHOCYTE FUNCTION WITH AN HDAC6 INHIBITOR” (priority 2013, published 2016).
“Also recorded” adds a separate entry of the source.

What was measured:
Assay type in all cases: in vivo
splenic B cells = assay: Splenic B cell developmental stages by flow cytometry in treated NZB/W mice; details: either low (5 mg/kg) or high (20 mg/kg) dose
Description: (§1) NZB/W mice were injected intraperitoneally 5 days/week with the vehicle control (DMSO), ACY-738 treatment at 5 mg/kg (low-dose), or ACY-738 treatment at 20 mg/kg (high-dose) beginning at 22-weeks-of-age until euthanization at 38 weeks-of-age. ACY-738 was received from Acetylon Pharmaceuticals for use in all studies. Proteinuria and weight were measured every 2 weeks and blood was collected every four weeks for sera analysis. Proteinuria was measured by a standard semi-quantitative test using Siemens Uristix dipsticks (Siemens Healthcare, Deerfield, Ill., USA). Results were quantified according to the manufacturer's instructions and scored as follows: dipstick reading of 0 mg/dL=0, trace=1, 30-100 mg/dL=2, 100-300 mg/dL=3, 300-2000 mg/dL=4, and 2000+ mg/dL=5.
Following euthanization, spleens were removed and single-cell suspensions of splenocytes were incubated with PerCP710 conjugated IgM, FITC conjugated AA4.1, PE conjugated CD23, and APC conjugated CD21 anti-mouse mAbs (eBioscience, San Diego, Calif., USA). IgM^+ cells were analyzed for the expression of AA4.1, CD23 and CD21 and divided into the following developmental stages using flow cytometry: T1 (IgM^+ CD23^− AA4.1^+ CD21^−), T2 (IgM^hi CD23^+ AA4.1^+ CD21^+), T3 (IgM^lo CD23^+ AA4.1^+ CD21^+), F0 (IgM^+ CD23^+ AA4.1^− CD21^−), MZ (IgM^+ CD23^− AA4.1^− CD21^+) or B1 (IgM^+ CD23^− AA4.1^− CD21^−). […]

[1] = tested on: peripheral B cells (IgM+B220+); assay: Peripheral B cells by flow cytometry in treated NZB/W mice; details: 38-week-old NZB/W mice, either low (5 mg/kg) or high (20 mg/kg) dose
Description: as §1
Blood was collected prior to euthanization using retro-orbital bleeding. RBCs from the peripheral blood were lysed and single cell suspensions were labeled using FITC-conjugated B220 and PerCep710 conjugated IgM anti-mouse mAbs (eBioscience, San Diego, Calif., USA). Mature B cells were identified as IgM^+B220^+ cells. Flow cytometry data was analyzed using FlowJo.
Similarly, a single-cell suspension of peripheral B cells was obtained from the blood of 38-week-old NZB/W mice and stained for IgM and B220. […]

NZB/W mice = assay: Survival rate and disease progression (body weight, proteinuria, spleen weight) in NZB/W mice; details: for proteinuria: every 2 weeks
Description: as §1
However, half of the NZB/W mice receiving the vehicle control alone died before termination of the study at 38 weeks-of-age (FIG. 6 A). Body weight increased as NZB/W mice aged following treatment with ACY-738. Vehicle control-treated NZB/W mice experienced weight loss concomitantly with increased proteinuria (FIG. 6 B).
Throughout the treatment period, NZB/W mice were monitored for changes in proteinuria and body weight.
Because SLE is characterized by enlargement of the spleen, splenomegaly was assessed in mice following euthanization by determining the total spleen weight along with the spleen: body weight ratio. Both spleen weight and spleen: body weight ratio were decreased following HDAC6 inhibition in a concentration dependent manner (FIG. 6 D-E).

sera TGF-β and IL-1β = assay: Sera IL-1β and TGF-β levels by ELISA in treated NZB/W mice
Description: as §1
IL-1β and TGF-β levels were measured from the sera by ELISA according to the manufacturer's protocol (eBioscience, San Diego, Calif., USA). The plate was read at 450 nm on a microplate spectrophotometer.
IL-1β and TGF-β levels in the sera of NZB/W mice were measured every 4 weeks starting from 22 weeks until euthanization at 38 weeks-of-age (FIG. 8 A-B). At 22 weeks-of-age there were no significant differences in cytokine levels amongst the three groups. As the NZB/W mice aged, sera levels of TGF-β decreased whereas levels of IL-1β increased (FIG. 8 A-B).

[2] = tested on: glomerular IgG and C3 deposition; assay: Glomerular immune complex (IgG, C3) deposition by immunofluorescence in treated NZB/W mice; details: for glomerular C3 deposition (score 0-4, fluorescence) / glomerular IgG deposition (score 0-4, fluorescence): vs vehicle control
Description: as §1
One half of each kidney was placed in OCT media and snap-frozen in a slurry containing dry ice and 2-methylbutane (Fisher Scientific, Hampton, N.H., USA). Frozen kidney sections were cut into […] sections and stained with goat anti-mouse IgG conjugated to FITC (Pierce) diluted 1:100 or goat anti-mouse C3-FITC (Pierce, Thermo Fisher Scientific, Waltham, Mass., USA) diluted 1:100. Kidney sections were examined by fluorescent microscopy. Sections were scored (0-4) for immune complex deposition by a pathologist in a blinded manner.
5 μM kidney sections were stained with FITC-conjugated C3 or IgG and assessed for fluorescence intensity. (see FIGS. 10A and 10B).

[3] = NZB/W mice after euthanization at 38 weeks, 5 and 20 mg/kg, concentration dependent
[4] = 16 weeks of treatment, dose not stated

For `O=C(NO)c1cnc(NC2(c3ccccc3)CC2)nc1` [ACY-738], the “splenic B cell populations (T1, T2, T3, F0, MZ, B1)” value (splenic B cells) was “did not significantly affect; also recorded: no effect”, the “percentage of peripheral B cells (IgM+B220+)” value [1] was “no effect” and the spleen weight (NZB/W mice; [3]) was “decreased”. For the same molecule, the “spleen: body weight ratio” value (NZB/W mice; [3]) was “decreased”, the body weight (NZB/W mice; NZB/W mice, 22-38 weeks-of-age, vehicle mice lost weight) was “increased” and the survival (NZB/W mice; NZB/W mice, high (20 mg/kg) or low (5 mg/kg) dose, to 38 weeks-of-age, half of vehicle mice died) was “survived to the completion of the study”. The proteinuria (NZB/W mice; NZB/W mice, high dose 20 mg/kg, 22-38 weeks-of-age, 20 mg/kg) was “prevented proteinuria from increasing; also recorded: significantly attenuated”, the proteinuria (NZB/W mice; NZB/W mice, low dose 5 mg/kg, 22-38 weeks-of-age) was “gradually increased” and the “sera IL-1β level” value (sera TGF-β and IL-1β; 38-week-old NZB/W mice, low and high dose, levels rise with age) was “significantly decreased; also recorded: attenuated the increase”. For the same molecule, the “sera TGF-β level” value (sera TGF-β and IL-1β; NZB/W mice, 22 to 38 weeks-of-age, 5 and 20 mg/kg, levels fall in vehicle mice with age) was “reverse this trend in a dose-dependent manner; also recorded: attenuated the reduction”, the “glomerular C3 deposition (score 0-4, fluorescence)” value ([2]; 5 mg/kg, 5 mg/kg) was “slight decrease; also recorded: no significant effect” and the “glomerular IgG deposition (score 0-4, fluorescence)” value ([2]; 5 mg/kg, 5 mg/kg) was “slight decrease; also recorded: no significant effect”. The “glomerular C3 deposition (score 0-4, fluorescence)” value ([2]; 20 mg/kg (high dose), 20 mg/kg) was “significantly decreased”, the “glomerular IgG deposition (score 0-4, fluorescence)” value ([2]; 20 mg/kg (high dose), 20 mg/kg) was “significantly decreased” and the “glomerular C3 deposition level” value [2, 4] was “significantly decreased”. The “glomerular IgG deposition level” value [2, 4] was “significantly decreased”.
